The text below walks through data of patent publication US20080187508A1, “Treatment of Golmerular Basement Membrane Disease Involving Matrix Metalloproteinase-12” (BOYS TOWN NATIONAL RESEARCH HOSPITAL, priority 2004, published 2008).

Assay [1] has as its system Alport mice. Kind of assay: immunofluorescence of kidney cryosections (fibronectin, collagen IV α1/α2) of treated Alport mice. Type of assay: in vivo, mouse. As to conditions: Alport mice treated from 4 to 7 weeks of age, MMI-270 50 μg/g I.P., BAY 129566 4 mg once daily oral gavage, fibronectin and collagen IV α1/α2 immunostaining. As for the experimental part: The Alport mouse model has been described (Cosgrove et al. (1996) Genes Dev. 10, 2981-2992). The control mice used were normal for both collagen α3(IV) alleles, and are a product of double heterozygote crosses for the Alport mutation. The use of animals in this study was performed in accordance with an approved institutional IACUC protocol. Extreme care was taken to minimize pain and discomfort suffered by the mice. MMP inhibitors were administered between 4 and 7 weeks of age. All drugs were freshly prepared prior to administration. BAY 129566 was emulsified in suspension with 0.5% carboxymethyl cellulose and 4 mg given once a day by oral gavage. MMI-270 was solubilized in 0.9% saline and administered by I.P. injection (50 μg/g body weight) once a day.
Cryosections ([…]) of kidneys from 7-week-old normal and Alport mice were air dried, fixed by immersion in ice cold acetone, and subjected to immunohistochemical staining analysis using antibodies specific for MMP-3 (rabbit polyclonal anti-human MMP-3, a gift from Dr. Z. Gunza-Smith, Miami, Fla., used at 1:200 dilution), MMP-12 (rabbit polyclonal antibody against mouse MMP-12, kindly provided by Yoshikatsu Kaneko, used at 1:100 dilution), type IV collagen α1/2 chains (rabbit polyclonal against mouse type IV collagen, Biodesign, Inc., Saco, Me., used at 1:200 dilution), fibronectin (rabbit polyclonal against human plasma fibronectin, Sigma Chemical Co., St. Louis, Mo., used at 1:200). Anti-CD31 antibodies were directly conjugated to Alexa 568 (Molecular Probes, Eugene Oreg.) and purchased from Immunotech (Marseille, France). […] Images were collected using a Cytovision Ultra Image analysis system interfaced with an Olympus BH-2 fluorescence microscope.
To assess the effect of these two compounds on Alport renal disease progression, Alport mice were administered either MMI 270 or BAY 129566 from 4 to 7 weeks of age. […] Cryosections were analyzed by immunofluorescence microscopy to assess for the degree of glomerular and tubulointerstitial damage using antibodies specific for collagen IV α1 and α2 chains, and fibronectin.

Another assay addresses MMP-3 (Homo sapiens, UniProt P08254). As to conditions: hydrochloride monohydrate; cited from earlier work.
The target in a further assay is MMP-14 (Homo sapiens, UniProt P50281). As to conditions: hydrochloride monohydrate; cited from earlier work.
The subject of assay [2] is Alport mice. Kind of assay: proteinuria by gel electrophoresis of urine of treated Alport mice. It counts as in vivo, mouse. The conditions noted are these: for proteinuria: Alport mice treated from 4 to 7 weeks of age, MMI-270 50 μg/g I.P.; for progression of proteinuria: Alport mice treated from 6 to 7 weeks of age (advanced disease). As for the experimental part: Proteinuria was analyzed by gel electrophoresis. (A) One half microliter of urine from control mice (lane 2), MMI 270-treated normal control mice (lane 3), MMI 270-treated Alport mice (injected […] with 50 μg/g of NMI 270) (lane 4), and untreated Alport mice (lane 5) was fractionated on a 10% PAGE gel, stained with Coomassie blue, and destained. Molecular weight markers are shown in lane 1. […] Urine was collected and analyzed as in (A). Lane 1, 6 week old control; lane 2, 6 week old Alport; lane 3, 7 week old control; lanes 4 and 5, 7 week old Alport; lanes 6 and 7, 7 week old Alport treated with MMI-270 from 6 to 7 weeks of age. Molecular weight markers are shown in lane 1. The Alport mouse model has been described (Cosgrove et al. (1996) Genes Dev. 10, 2981-2992). The control mice used were normal for both collagen α3(IV) alleles, and are a product of double heterozygote crosses for the Alport mutation. The use of animals in this study was performed in accordance with an approved institutional IACUC protocol. Extreme care was taken to minimize pain and discomfort suffered by the mice. MMP inhibitors were administered between 4 and 7 weeks of age. All drugs were freshly prepared prior to administration. BAY 129566 was emulsified in suspension with 0.5% carboxymethyl cellulose and 4 mg given once a day by oral gavage. MMI-270 was solubilized in 0.9% saline and administered by I.P. injection (50 μg/g body weight) once a day. To assess the effect of these two compounds on Alport renal disease progression, Alport mice were administered either MMI 270 or BAY 129566 from 4 to 7 weeks of age. The animals were transcardially perfused with PBS and the kidneys harvested. Cryosections were analyzed by immunofluorescence microscopy to assess for the degree of glomerular and tubulointerstitial damage using antibodies specific for collagen IV α1 and α2 chains, and fibronectin.

[3] abbreviates: listed as NMI 270, hydrochloride monohydrate.

“Also recorded” adds a separate entry of the source. Where a name gives a salt, the structure may show the parent alone.

MMP-3, sequence (P08254 100-477, species assumed): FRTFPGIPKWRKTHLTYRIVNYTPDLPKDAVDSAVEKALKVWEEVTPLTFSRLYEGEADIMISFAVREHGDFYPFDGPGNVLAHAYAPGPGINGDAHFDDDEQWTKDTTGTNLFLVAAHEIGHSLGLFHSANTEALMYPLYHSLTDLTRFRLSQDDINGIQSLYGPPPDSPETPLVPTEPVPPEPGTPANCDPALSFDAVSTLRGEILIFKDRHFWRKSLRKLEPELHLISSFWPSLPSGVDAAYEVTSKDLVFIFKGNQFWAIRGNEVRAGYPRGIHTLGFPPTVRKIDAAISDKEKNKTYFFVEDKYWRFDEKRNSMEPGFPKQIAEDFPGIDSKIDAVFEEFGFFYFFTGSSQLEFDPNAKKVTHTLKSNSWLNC

Take `COc1ccc(S(=O)(=O)N(Cc2cccnc2)[C@@H](C(=O)NO)C(C)C)cc1` [MMI 270, N-hydroxy-2(R)-[(4-methoxysulfonyl)(3-picolyl)amino]-3-methylbutaneamide hydrochloride monohydrate]: the “glomerular and tubulointerstitial (renal) disease progression” value with Alport mice [1] (hydrochloride monohydrate) is “very little glomerular or interstitial disease; also recorded: remarkable improvement”; in the assay with Alport mice [1] (setting [3]), “significantly reduced interstitial disease”. Besides, at MMP-3, the “MMP inhibitory effect, MMP-3” value was “inhibits”. In addition, at MMP-14, the “MMP inhibitory effect, MMP-14” value is recorded as “inhibits”. In addition, the proteinuria result is recorded as “arrests (and may reverse) progressive loss of glomerular function” in the assay with Alport mice [2] (hydrochloride monohydrate); “dramatic reduction” in the assay with Alport mice [2] (listed as MMI-270, hydrochloride monohydrate); “drastically reduced” in the assay on Alport mice [2] (setting [3]). Besides, the progression of proteinuria result in the assay on Alport mice [2] (hydrochloride monohydrate) is reported as “arrests the progressive increase in proteinuria; also recorded: arrested”; in the assay with Alport mice [2] (setting [3]) it was “arrested”.
